Experimental data published in ChEMBL document CHEMBL6127139, “Lysine-Targeted Covalent Inhibitors of PI3Kδ Synthesis and Screening by In Situ Interaction Upgradation” (J Med Chem, 2024).

Tests used:
[1] = Growth inhibition of PI3Kdelta-overexpressing human SU-DHL-6 cells incubated for 72 hrs by MTT assay; format: functional
[2] = biological target: Phosphatidylinositol 4,5-bisphosphate 3-kinase catalytic subunit alpha isoform (Homo sapiens, UniProt P42336); test: Inhibition of recombinant PI3Kalpha (unknown origin) using PIP2:3PS as substrate preincubated for 20 mins followed by ATP addition and measured after 1 hrs by ADP-Glo reagent based assay
[3] = biological target: T1, Phosphatidylinositol 4,5-bisphosphate 3-kinase catalytic subunit delta isoform (Homo sapiens, UniProt O00329); test: Inhibition of recombinant PI3Kdelta (unknown origin) using PIP2:3PS as substrate preincubated for 20 mins followed by ATP addition and measured after 1 hrs by ADP-Glo reagent based assay
T1 sequence (O00329 whole entry): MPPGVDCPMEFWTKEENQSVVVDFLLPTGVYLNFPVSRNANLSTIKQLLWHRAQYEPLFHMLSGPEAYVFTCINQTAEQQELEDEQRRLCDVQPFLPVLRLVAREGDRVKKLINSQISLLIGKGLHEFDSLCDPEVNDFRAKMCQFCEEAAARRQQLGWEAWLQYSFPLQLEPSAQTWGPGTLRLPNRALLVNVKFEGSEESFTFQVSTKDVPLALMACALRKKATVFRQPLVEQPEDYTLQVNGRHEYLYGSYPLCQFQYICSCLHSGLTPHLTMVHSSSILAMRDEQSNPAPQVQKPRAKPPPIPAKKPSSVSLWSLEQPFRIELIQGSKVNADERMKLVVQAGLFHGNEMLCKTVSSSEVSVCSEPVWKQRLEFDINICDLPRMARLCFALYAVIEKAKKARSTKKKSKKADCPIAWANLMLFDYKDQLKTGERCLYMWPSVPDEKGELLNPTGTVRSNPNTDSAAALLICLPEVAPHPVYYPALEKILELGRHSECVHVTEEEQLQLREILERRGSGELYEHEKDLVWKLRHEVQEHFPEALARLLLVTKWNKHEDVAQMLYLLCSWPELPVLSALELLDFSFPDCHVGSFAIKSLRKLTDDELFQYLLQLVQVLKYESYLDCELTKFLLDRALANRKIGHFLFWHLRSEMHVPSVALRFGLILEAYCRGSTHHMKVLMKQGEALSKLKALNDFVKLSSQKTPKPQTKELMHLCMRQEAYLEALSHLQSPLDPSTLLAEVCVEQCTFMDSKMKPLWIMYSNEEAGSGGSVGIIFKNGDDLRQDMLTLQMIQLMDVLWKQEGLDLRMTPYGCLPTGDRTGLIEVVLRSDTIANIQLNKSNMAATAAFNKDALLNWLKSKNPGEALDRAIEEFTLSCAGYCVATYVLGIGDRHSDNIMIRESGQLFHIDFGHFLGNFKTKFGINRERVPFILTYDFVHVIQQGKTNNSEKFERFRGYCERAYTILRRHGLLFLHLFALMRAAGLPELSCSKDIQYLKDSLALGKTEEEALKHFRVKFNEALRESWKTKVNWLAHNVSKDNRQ

[4] = Chemical reactivity of the compound with N-Boc-Lysine assessed as half-life at 1 uM by HPLC analysis; format: physicochemical; settings: incubation with N-Boc-Lysine
[5] = Growth inhibition of PI3Kdelta-overexpressing human Pfeiffer cells incubated for 72 hrs by MTT assay; format: functional

Chain of Phosphatidylinositol 4,5-bisphosphate 3-kinase catalytic subunit alpha isoform (P42336 whole entry, canonical isoform): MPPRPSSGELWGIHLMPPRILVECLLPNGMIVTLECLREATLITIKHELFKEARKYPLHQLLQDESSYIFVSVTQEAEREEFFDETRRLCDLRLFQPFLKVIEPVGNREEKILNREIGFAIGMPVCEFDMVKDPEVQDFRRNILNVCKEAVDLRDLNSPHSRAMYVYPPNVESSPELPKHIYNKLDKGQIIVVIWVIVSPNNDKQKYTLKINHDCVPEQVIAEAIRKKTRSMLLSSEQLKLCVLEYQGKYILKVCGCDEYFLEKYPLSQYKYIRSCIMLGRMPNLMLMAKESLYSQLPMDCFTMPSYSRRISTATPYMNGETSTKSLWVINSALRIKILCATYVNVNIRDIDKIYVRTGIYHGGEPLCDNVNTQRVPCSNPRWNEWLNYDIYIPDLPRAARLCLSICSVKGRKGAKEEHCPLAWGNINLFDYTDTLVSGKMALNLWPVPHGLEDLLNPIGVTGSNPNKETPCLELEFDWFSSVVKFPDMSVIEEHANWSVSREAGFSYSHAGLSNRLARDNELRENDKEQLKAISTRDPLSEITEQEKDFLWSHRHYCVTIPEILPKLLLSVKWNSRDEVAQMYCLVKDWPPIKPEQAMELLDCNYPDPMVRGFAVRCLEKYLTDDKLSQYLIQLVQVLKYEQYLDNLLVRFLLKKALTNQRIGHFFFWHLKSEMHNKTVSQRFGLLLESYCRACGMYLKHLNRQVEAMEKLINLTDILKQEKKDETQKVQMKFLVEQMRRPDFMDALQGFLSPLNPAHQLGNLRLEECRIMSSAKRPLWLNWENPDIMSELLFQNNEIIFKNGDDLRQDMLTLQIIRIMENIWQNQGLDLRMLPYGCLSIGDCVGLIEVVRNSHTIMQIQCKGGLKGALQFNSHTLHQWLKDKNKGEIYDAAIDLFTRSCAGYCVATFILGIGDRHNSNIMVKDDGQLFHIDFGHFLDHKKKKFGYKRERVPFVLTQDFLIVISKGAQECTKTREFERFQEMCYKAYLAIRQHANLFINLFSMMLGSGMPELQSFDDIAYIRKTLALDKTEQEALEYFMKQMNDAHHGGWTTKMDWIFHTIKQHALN

Row | SMILES | GI50 [1] | IC50 [2] | IC50 [3] | half-life at 1 µM [4] | GI50 [5]
1 | COc1ncc(-c2ccc3ncnc(N[C@H]4CCN(C(=O)C5CCOCC5)C4)c3c2)cc1C(=O)Oc1ccc(C)cc1 | 0.003 µM | 0.145 µM | 0.00247 µM | 353 min | 0.137 µM
2 | COc1ncc(-c2ccc3ncnc(N[C@H]4CCN(C(=O)C5CCOCC5)C4)c3c2)cc1C(=O)Oc1ccc(C(F)(F)F)cc1 | 0.133 µM | 0.33 µM | 0.00093 µM | 1.9 min | 0.816 µM
3 | O=Cc1cc(-c2ccc3ncnc(N[C@H]4CCN(C(=O)C5CCOCC5)C4)c3n2)ccc1O | 0.71 µM |  | 0.00558 µM | < 1 min | 5.48 µM
4 | COc1ncc(-c2ccc3ncnc(N[C@H]4CCN(C(=O)C5CCOCC5)C4)c3n2)cc1C(=O)Oc1c(F)cc(F)cc1F | 0.065 µM | > 1 µM | 0.00493 µM | < 1 min | 0.438 µM
5 | C=CC(=O)Nc1cc(-c2ccc3ncnc(N[C@H]4CCN(C(=O)C5CCOCC5)C4)c3c2)cnc1OC | 0.71 µM |  | 0.00859 µM | > 1440 min | 1.52 µM
6 | COc1ncc(-c2ccc3ncnc(N[C@H]4CCN(C(=O)C5CCOCC5)C4)c3c2)cc1CCl | 0.31 µM |  | 0.0242 µM | 420 min | 0.49 µM
7 | O=Cc1cc(-c2ccc3ncnc(N[C@H]4CCN(C(=O)C5CCOCC5)C4)c3c2)ccc1O | 0.32 µM |  | 0.00646 µM | < 1 min | 7.78 µM
8 | C#Cc1ccc(-c2ccc3ncnc(N[C@H]4CCN(C(=O)C5CCOCC5)C4)c3n2)cc1C=O | 0.43 µM |  | 0.00148 µM | 2.1 min | 2.32 µM
9 | COC(=O)c1cc(-c2ccc3ncnc(N[C@H]4CCN(C(=O)C5CCOCC5)C4)c3n2)cnc1OC | 0.042 µM | > 1 µM | 0.00121 µM | > 1440 min | 0.447 µM
10 | COc1ncc(-c2ccc3ncnc(N[C@H]4CCN(C(=O)C5CCOCC5)C4)c3c2)cc1C(=O)Oc1ccc(Cl)cc1 | 0.016 µM | > 1 µM | 0.00079 µM | 12.7 min | 0.276 µM
11 | COc1ncc(-c2ccc3ncnc(N[C@H]4CCN(C(=O)C5CCOCC5)C4)c3n2)cc1C(=O)Oc1ccc(C)cc1 | 0.008 µM | 0.0135 µM | 0.00611 µM | 326 min | 0.139 µM
12 | C#Cc1ccc(-c2ccc3ncnc(N[C@H]4CCN(C(=O)C5CCOCC5)C4)c3c2)cc1C=O | 0.85 µM |  | 0.00267 µM | 1.9 min | 4.18 µM
13 | C=CC(=O)Nc1cc(-c2ccc3ncnc(N[C@H]4CCN(C(=O)C5CCOCC5)C4)c3n2)cnc1OC | 0.65 µM |  | 0.0478 µM | > 1440 min | 1.19 µM
14 | COc1ncc(-c2ccc3ncnc(N[C@H]4CCN(C(=O)C5CCOCC5)C4)c3n2)cc1C(=O)Oc1ccc(C(F)(F)F)cc1 | 0.096 µM | 0.0933 µM | 0.00101 µM | 1.7 min | 1.26 µM
15 | COc1ncc(-c2ccc3ncnc(N[C@H]4CCN(C(=O)C5CCOCC5)C4)c3n2)cc1C(=O)Oc1ccc(Cl)cc1 | 0.157 µM | > 1 µM | 0.00257 µM | 10.1 min | 0.776 µM
16 | COc1ccc(OC(=O)c2cc(-c3ccc4ncnc(N[C@H]5CCN(C(=O)C6CCOCC6)C5)c4n3)cnc2OC)cc1 | 0.008 µM | 0.0542 µM | 0.00117 µM | 359 min | 0.138 µM

Row | SMILES | GI50 [1] | IC50 [2] | IC50 [3] | half-life at 1 µM [4] | GI50 [5]
17 | COc1ncc(-c2ccc3ncnc(N[C@H]4CCN(C(=O)C5CCOCC5)C4)c3c2)cc1C(=O)Oc1ccc(Cl)cc1Cl | 0.142 µM | 0.347 µM | 0.0015 µM | 1.2 min | 0.346 µM
18 | COc1ncc(-c2ccc3ncnc(N[C@H]4CCN(C(=O)C5CCOCC5)C4)c3c2)cc1C(=O)Oc1ccc([N+](=O)[O-])cc1 | 0.052 µM | 0.12 µM | 0.0066 µM | < 1 min | 0.575 µM
19 | COc1ncc(-c2ccc3ncnc(N[C@H]4CCN(C(=O)C5CCOCC5)C4)c3n2)cc1C(=O)Oc1ccc([N+](=O)[O-])cc1 | 0.02 µM | 0.0104 µM | 0.00231 µM | < 1 min | 0.788 µM
20 | COc1ncc(-c2ccc3ncnc(N[C@H]4CCN(C(=O)C5CCOCC5)C4)c3c2)cc1C(=O)Oc1cccnc1 | 0.019 µM | 0.663 µM | 0.00026 µM | 2.5 min | 0.199 µM
21 | COc1ncc(-c2ccc3ncnc(N[C@H]4CCN(C(=O)C5CCOCC5)C4)c3c2)cc1C(=O)Oc1ccc(F)cc1F | 0.064 µM | 0.0393 µM | 0.00147 µM | 3.1 min | 0.433 µM
22 | COc1ncc(-c2ccc3ncnc(N[C@H]4CCN(C(=O)C5CCOCC5)C4)c3n2)cc1C(=O)Oc1ccc(F)cc1F | 0.031 µM | 0.0298 µM | 0.00319 µM | 3.2 min | 0.42 µM
23 | COc1ncc(-c2ccc3ncnc(N[C@H]4CCN(C(=O)C5CCOCC5)C4)c3c2)cc1C(=O)Oc1ccc(C#N)cc1 | 0.027 µM | > 1 µM | 0.00453 µM | < 1 min | 0.479 µM
24 | COc1ccc(OC(=O)c2cc(-c3ccc4ncnc(N[C@H]5CCN(C(=O)C6CCOCC6)C5)c4c3)cnc2OC)cc1 | 0.006 µM | 0.0565 µM | 0.00202 µM | 387 min | 0.225 µM
25 | COc1ncc(-c2ccc3ncnc(N[C@H]4CCN(C(=O)C5CCOCC5)C4)c3n2)cc1C(=O)Oc1ccc(Cl)cc1Cl | 0.053 µM | > 1 µM | 0.00142 µM | 1.1 min | 0.752 µM
26 | COc1ncc(-c2ccc3ncnc(N[C@H]4CCN(C(=O)C5CCOCC5)C4)c3n2)cc1CCl | 0.34 µM |  | 0.0104 µM | 430 min | 0.57 µM
27 | COc1ncc(-c2ccc3ncnc(N[C@H]4CCN(C(=O)C5CCOCC5)C4)c3n2)cc1C(=O)Oc1ccc(C#N)cc1 | 0.032 µM | 0.0514 µM | 0.00186 µM | < 1 min | 0.425 µM
28 | COc1ncc(-c2ccc3ncnc(N[C@H]4CCN(C(=O)C5CCOCC5)C4)c3c2)cc1C(=O)Oc1c(F)cc(F)cc1F | 0.032 µM | 0.0869 µM | 0.00108 µM | < 1 min | 0.26 µM
29 | COC(=O)c1cc(-c2ccc3ncnc(N[C@H]4CCN(C(=O)C5CCOCC5)C4)c3c2)cnc1OC | 0.05 µM | > 1 µM | 0.00159 µM | > 1440 min | 1.24 µM
30 | COc1ncc(-c2ccc3ncnc(N[C@H]4CCN(C(=O)C5CCOCC5)C4)c3n2)cc1C(=O)Oc1cccnc1 | 0.122 µM | 0.254 µM | 0.0007 µM | 2.8 min | 0.662 µM
31 | COc1ncc(-c2ccc3ncnc(N[C@H]4CCN(C(=O)C5CCOCC5)C4)c3n2)cc1C=O | 0.35 µM |  | 0.0935 µM | 2.3 min | 0.31 µM
32 | COc1ncc(-c2ccc3ncnc(N[C@H]4CCN(C(=O)C5CCOCC5)C4)c3c2)cc1C=O | 0.17 µM |  | 0.0488 µM | 2.1 min | 0.2 µM
